Assay results from article PMC6930524, “A Prospective Repurposing of Dantrolene as a Multitarget Agent for Alzheimer’s Disease” (Molecules, 2019).

How the values were obtained:
[1] = biological target: T1, human MAO B (hMAO B) (Homo sapiens, UniProt P27338); assay: biochemical
T1 construct: purchased Sigma-Aldrich Europe (Milan, Italy); host or cells: baculovirus infected insect cells (microsomes)
T1 sequence (P27338 1-520): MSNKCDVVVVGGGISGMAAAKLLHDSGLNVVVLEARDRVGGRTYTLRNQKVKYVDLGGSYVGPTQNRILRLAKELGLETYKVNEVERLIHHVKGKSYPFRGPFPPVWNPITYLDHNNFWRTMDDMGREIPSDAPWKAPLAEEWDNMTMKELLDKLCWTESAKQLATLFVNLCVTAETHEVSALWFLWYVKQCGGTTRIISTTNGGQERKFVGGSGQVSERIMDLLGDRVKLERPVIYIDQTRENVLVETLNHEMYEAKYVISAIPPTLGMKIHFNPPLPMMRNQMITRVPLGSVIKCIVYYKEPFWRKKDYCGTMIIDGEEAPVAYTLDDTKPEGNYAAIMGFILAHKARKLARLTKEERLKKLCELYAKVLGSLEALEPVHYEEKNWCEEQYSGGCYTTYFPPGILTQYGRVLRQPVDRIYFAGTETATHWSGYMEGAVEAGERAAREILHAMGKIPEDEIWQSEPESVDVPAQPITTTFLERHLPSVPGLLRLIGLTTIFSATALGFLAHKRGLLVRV
Source text: Routine kynuramine fluorescence [29] and Ellman’s spectrophotometric [30, 31] assays were used for in vitro inhibition of human MAO B (hMAO B) and acetylcholinesterase (hAChE), respectively. Selectivity over the corresponding isoforms hMAO A and butyrylcholinesterase (hBChE) was also verified.
An already published protocol using human recombinant monoamine oxidases A (250 U/mg) and B (59 U/mg; microsomes from baculovirus infected insect cells) [29] was used by applying a 96-well plate technique (instrument Infinite M1000 Pro, Tecan, Cernusco s.N., Italy). Briefly, compounds at a concentration ranging from 30 to 0.01 μM were preincubated 20 min at 37 °C with substrate kynuramine, in phosphate buffer 8.0 made 0.39 osmolar with KCl. After addition of enzyme and further 30 min of incubation, NaOH was added and the fluorescence read at 310/400 excitation/emission wavelength. Experiments were performed in duplicates in black, flat-bottomed polystyrene 96-well microtiter plates (Greiner Bio-One GmbH, Frickenhausen, Germany). […] Inhibition values and kinetics were calculated by means of Prism (GraphPad Prism version 5.00 for Windows, GraphPad Software, San Diego, CA, USA).

[2] = biological target: T2, recombinant wild-type (WT) CAC (Rattus norvegicus, UniProt P97521); assay: Transport activity of purified recombinant WT CAC reconstituted into liposomes; assay type: biochemical
T2 construct: made in house; host or cells: Escherichia coli C0214
T2 sequence (P97521 1-301): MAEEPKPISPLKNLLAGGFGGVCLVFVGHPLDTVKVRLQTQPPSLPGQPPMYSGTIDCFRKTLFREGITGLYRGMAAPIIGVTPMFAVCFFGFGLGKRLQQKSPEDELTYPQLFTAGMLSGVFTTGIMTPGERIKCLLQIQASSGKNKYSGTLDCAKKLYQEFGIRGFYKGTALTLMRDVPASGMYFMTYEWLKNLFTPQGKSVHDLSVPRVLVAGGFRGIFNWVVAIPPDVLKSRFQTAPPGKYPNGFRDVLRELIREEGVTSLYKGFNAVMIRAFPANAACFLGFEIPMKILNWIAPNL
Procedure: To detect the effect of DAN on native CAC, mitochondrial extract was reconstituted into liposomes and transport activity was measured adding various concentrations of compound. In Figure 7A, the dose–response curve is shown. […] Thus, the effect of different concentrations of DAN was tested also on the purified recombinant wild-type (WT) CAC carrier reconstituted into liposomes, measuring the antiport rate of carnitine.
The reducing properties of DAN were studied on the recombinant WT CAC with the protein at different states of oxidation. Figure 8B highlights that when the carrier was incubated during the transport activity with 1 mM dithioerythritol (DTE), 10 µM DAN was able to reduce a major aliquot of oxidized protein (70% recovery of activity compared to the control). […] To identify the cysteines responsible for the activation of the CAC carrier, the proteoliposomes of the WT protein and the mutants C136S, C155S, C136/155S, and C-lessV (C23V/C58V/C89S/C136V/C155V/C283S) were incubated with 10 μM DAN. […] Further evidence of the reducing action of DAN on CAC was obtained by oxidation of the reconstituted WT protein under controlled conditions, i.e., in the presence or absence of hydrogen peroxide and its subsequent degradation by the enzyme catalase. […] The addition of 20 µM DAN led to a significant recovery (about 80%) of the transport function, after treatment of the carrier with H2O2.
The previously constructed pMW7-WTrat CAC recombinant plasmid was used as a template to introduce mutations in the CAC protein using complementary mutagenic primers and the High Fidelity PCR System (Roche, Basel, Switzerland). The PCR products were purified by the QIAEX II Gel Extraction Kit (QIAGEN, Milan, Italy), digested with the restriction enzymes Nde I and Hind III (New England Biolabs, Ipswich, MA, USA) and ligated into the pMW7 cloning vector (given as a gift). All resulting pMW7-rat CAC constructs were verified by DNA sequencing. Except for the desired base changes, all the sequences corresponded to the CAC coding sequence. Bacterial overexpression was obtained using the expression vector of Escherichia coli C0214 (given as a gift). Wild-type and mutants rat CAC inclusion body fractions were isolated from E. coli, solubilized, and purified as previously described.
Mitochondrial rat liver extract (0.3 mg proteins in 3% Triton X-100) containing native CAC was reconstituted into liposomes by removing the detergent from the mixed micelles through a hydrophobic ion-exchange column containing the resin Amberlite XAD-4, as described previously. The reconstitution mixture of mitochondrial or recombinant CAC proteins was composed of protein, 1% Triton X-100, 10 mg of egg yolk phospholipids (L-α-phosphatidylcholine from fresh turkey egg yolk), in the form of sonicated liposomes, 30 mM NaH2PO4 at pH 7.0, 15 mM carnitine, in a final volume of 680 μL. This mixture was passed 15 times, at room temperature, through the same Amberlite column (Pasteur pipette filled with 0.5 g resin) pre-equilibrated with a buffer containing 30 mM NaH2PO4 at pH 7.0 and 15 mM carnitine.
Before starting the transport activity, proteoliposomes were passed through a Sephadex G-75 column (0.7 cm diameter; 15 cm height; Pharmacia, Milan, Italy) to remove the external substrate. The turbid eluate (550 μL) from the Sephadex column was collected and used for transport measurement by the inhibitor-stop method. For uptake measurements, transport at 25 °C was started by adding 0.1 mM [^3H]-carnitine to proteoliposomes and stopped by the addition of 0.1 mM NEM. In control samples, the inhibitor was added together with the labeled substrate at time zero. The experimental values were corrected by subtracting control values. […]

[3] = biological target: T3, human recombinant AChE (hAChE) (Homo sapiens, UniProt P22303); assay: biochemical; assay type: biochemical
T3 construct: purchased Sigma-Aldrich Europe (Milan, Italy)
T3 sequence (P22303 32-614): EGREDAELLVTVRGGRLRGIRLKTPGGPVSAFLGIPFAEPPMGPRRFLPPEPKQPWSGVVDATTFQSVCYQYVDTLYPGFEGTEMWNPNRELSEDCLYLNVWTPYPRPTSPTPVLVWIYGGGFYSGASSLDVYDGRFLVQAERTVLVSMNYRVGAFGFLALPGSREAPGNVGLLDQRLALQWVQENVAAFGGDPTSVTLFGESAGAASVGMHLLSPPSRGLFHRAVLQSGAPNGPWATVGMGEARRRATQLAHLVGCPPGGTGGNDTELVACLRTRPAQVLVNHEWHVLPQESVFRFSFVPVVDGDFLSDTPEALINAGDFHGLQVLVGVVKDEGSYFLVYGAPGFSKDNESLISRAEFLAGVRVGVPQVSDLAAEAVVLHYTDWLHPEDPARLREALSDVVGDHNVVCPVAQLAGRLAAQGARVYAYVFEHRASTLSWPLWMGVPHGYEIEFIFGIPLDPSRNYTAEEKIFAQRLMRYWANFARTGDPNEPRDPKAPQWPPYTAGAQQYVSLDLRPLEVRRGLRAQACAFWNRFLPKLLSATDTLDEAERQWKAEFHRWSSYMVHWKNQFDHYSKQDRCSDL
Procedure: (§1) An already published method was used to apply the Ellman’s spectrophotometric assay to the 96-well plate technique. […] Experiments were performed in duplicate in transparent, flat-bottomed polystyrene 96-well microtiter plates, and readings made with Tecan Infinite M1000 Pro instrument.

[4] = biological target: T4, BChE from human serum (hBChE) (Homo sapiens, UniProt P06276); assay: hBChE inhibition, Ellman's spectrophotometric assay; assay type: biochemical; conditions: mean ± SEM of three independent experiments
T4 construct: BChE from human serum (50 U/mg); purchased Sigma-Aldrich Europe (Milan, Italy); host or cells: human serum
T4 sequence (P06276 29-602): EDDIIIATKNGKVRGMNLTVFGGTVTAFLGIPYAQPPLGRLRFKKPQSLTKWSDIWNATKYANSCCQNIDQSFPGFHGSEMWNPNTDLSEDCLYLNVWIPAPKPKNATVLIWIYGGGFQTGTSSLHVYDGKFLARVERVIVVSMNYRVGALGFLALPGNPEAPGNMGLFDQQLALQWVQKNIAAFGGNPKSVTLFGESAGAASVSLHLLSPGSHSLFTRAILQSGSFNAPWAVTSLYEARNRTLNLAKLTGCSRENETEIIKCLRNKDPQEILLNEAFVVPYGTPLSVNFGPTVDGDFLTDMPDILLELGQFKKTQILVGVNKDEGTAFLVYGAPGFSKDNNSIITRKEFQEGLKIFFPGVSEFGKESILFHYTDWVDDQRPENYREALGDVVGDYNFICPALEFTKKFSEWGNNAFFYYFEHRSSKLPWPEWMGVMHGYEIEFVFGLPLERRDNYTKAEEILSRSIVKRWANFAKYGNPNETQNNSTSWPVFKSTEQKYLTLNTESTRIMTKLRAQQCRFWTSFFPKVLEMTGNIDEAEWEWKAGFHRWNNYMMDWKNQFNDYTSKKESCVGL
Procedure: as §1

O=C1CN(/N=C/c2ccc(-c3ccc([N+](=O)[O-])cc3)o2)C(O)=N1 [Dantrolene]
IC50 [1]: 2690 ± 440 nM | hMAO B inhibition mechanism ([1]; Michaelis–Menten / Lineweaver–Burk, substrate kynuramine): comp. | Ki ([1]; substrate kynuramine, mean ± SEM): 960 ± 90 nM | transport activity of WT CAC over time compared to the control ([2]; 10 μM, average values over time intervals): around 160% | recovery of activity compared to the control ([2]; 10 µM, carrier incubated with 1 mM DTE): 70% | recovery of activity ([2]; 10 µM, carrier incubated with 50 mM DTE): 25% | increase in transport activity on WT ([2]; 10 μM, proteoliposomes of WT protein): 180% | recovery of the transport function after H2O2 ([2]; 20 µM, after 1 mM H2O2 for 10 min at 37 °C (activity decreased to about 50% without compound)): about 80% | EC50 ([2]; after 30 min of incubation, read-out: EC50 of activation of recombinant WT CAC): 9.3 ± 3.1 µM | concentration for whole activation of the WT protein ([2]; dose–response curve, 30 min): above 50 μM | IC50 [3]: 4.19 ± 0.73 µM | hAChE inhibition mechanism ([3]; Michaelis–Menten / Lineweaver–Burk, substrate acetylthiocoline): noncomp. | potency of AChE inhibition relative to galantamine ([3]; fold lower than reference compound galantamine): seven-fold lower | Ki ([3]; substrate acetylthiocoline, mean ± SEM): 6.3 ± 0.15 µM | hBChE IC50 [4]: No inhibition
